# Test results: PMC4503722, “Novel Phenotypic Outcomes Identified for a Public Collection of Approved Drugs from a Publicly Accessible Panel of Assays” (PLoS ONE, 2015)
# Read-outs that look alike come from different tables or passages of the source.
# Columns and labels:
# Experiment in all cases: cells
# [1] = system: endothelial tube formation in co-cultures of ECFCs and ADSCs treated with VEGF; type: cell-based, human
# [2] = system: nuclear β-catenin in C2C12 cells; type: cell-based
# INS-1E cells = type: cell-based, rat
# NCI-H716 cells = type: cell-based, Human
# HeLa cells = type: cell-based; settings: for EC50: Homo sapiens, HeLa, read-out: CellCycle G2/M
# DLD-1 = type: cell-based; settings: Homo sapiens
# SW480 = type: cell-based; settings: Homo sapiens
# HCT116 = type: cell-based; settings: Homo sapiens
# [3] = system: HCT116 cells treated with a GSK3β inhibitor; type: cell-based; settings: Homo sapiens
# [4] = Homo sapiens; read-out: Anti-Angiogenesis
# [5] = Mus musculus, C2C12, S2 Table; module primary assay; 20 / 20.1 codes per legend; read-out: Wnt Pathway
# [6] = Rattus norvegicus, INS-1E; read-out: Insulin Secretion
# [7] = Homo sapiens, NCI-H716; read-out: GLP 1 Secretion
# [8] = S2 Table, 20 = no response at highest concentration
# [9] = DLD-1, basal, DLD-1, read-out: Basal_Viability ATP DLD-1
# [10] = SW480, basal, SW480, read-out: Basal_Viability ATP SW480
# [11] = HCT-116, basal, HCT116, read-out: Basal_Viability ATP HCT116
# [12] = HCT-116, HCT116 pretreated with GSK3b inhibitor, read-out: GSK3b inh pretreated_Viability ATP HCT116
# [13] = Homo sapiens, IC50 / EC50; endothelial tube area, ADSC/ECFC co-culture; read-out: Anti-Angiogenesis
# [14] = Mus musculus, C2C12, IC50 / EC50; C2C12 beta-catenin translocation; read-out: Wnt Pathway
# [15] = Rattus norvegicus; IC50 / EC50; INS-1E; read-out: Insulin Secretion
# [16] = Homo sapiens; IC50 / EC50; NCI-H716; read-out: GLP 1 Secretion
# [17] = DLD-1, basal, read-out: Basal_Viability ATP DLD-1
# [18] = SW480, basal, read-out: Basal_Viability ATP SW480
# [19] = HCT-116, basal, read-out: Basal_Viability ATP HCT116
# [20] = HCT-116, GSK3b inhibitor pretreated, read-out: GSK3b inh pretreated_Viability ATP HCT116
# [21] = Homo sapiens, read-out: Anti-Angiogenesis
# [22] = Mus musculus, C2C12, read-out: Wnt Pathway
# [23] = Rattus norvegicus, INS-1E, read-out: Insulin Secretion
# [24] = Homo sapiens, NCI-H716, read-out: GLP 1 Secretion
# [25] = DLD-1, read-out: Basal_Viability ATP DLD-1
# [26] = SW480, read-out: Basal_Viability ATP SW480
# [27] = HCT-116, read-out: Basal_Viability ATP HCT116
# [28] = HCT-116, read-out: GSK3b inh pretreated_Viability ATP HCT116
structure (smiles),measurement,setting,value
CN(C)/N=N/c1[nH]cnc1C(N)=O [dacarbazine],IC50,[1]; [4],4.59 µM
same,EC50,[2]; [5],> 10 µM
same,EC50,INS-1E cells; [6],> 10 µM
same,EC50,NCI-H716 cells; [7],> 10 µM
same,EC50,HeLa cells; [8],> 10 µM
same,IC50,DLD-1; [9],> 20 µM
same,IC50,SW480; [10],> 20 µM
same,IC50,HCT116; [11],> 20 µM
same,IC50,[3]; [12],> 20 µM
"Cc1ccc(S(=O)(=O)NC(=O)NN2CC3CCCC3C2)cc1 (centres unmarked) [gliclazide, reference compound]",IC50,"[1]; Homo sapiens, Table 2; primary assay tube area; 20 = no response in concentration-response, 20.1 = inactive in single concentration testing; read-out: Anti-Angio IC50",> 10 µM
same,EC50,"[2]; Mus musculus, C2C12, Table 2; C2C12; […]; 20 / 20.1 coded; read-out: Wnt pot. EC50",> 10 µM
same,EC50,"INS-1E cells; Rattus norvegicus, INS-1E; read-out: Ins. sec. EC50",1.8 µM
same,EC50,INS-1E cells; [6],1.83 µM
same,EC50,"NCI-H716 cells; Homo sapiens, NCI-H716; read-out: GLP1 sec. EC50",> 10 µM
same,G2/M IC50 / EC50,HeLa cells,20 (values shown as 20 indicate that the compound was tested in concentration-response and showed no response at the highest concentration tested (e.g. IC50 > 20 μM))
same,EC50,HeLa cells; [8],> 10 µM
same,IC50,"DLD-1; DLD-1, 72 h, Table 2, 72 h, Cell TiterGlo, non-adherent, 20 coded, read-out: DLD-1 viab. IC50",> 20 µM
same,IC50,"SW480; SW480, 72 h, Table 2, 72 h, Cell TiterGlo, non-adherent, 20 coded, read-out: SW480 viab. IC50",> 20 µM
same,IC50,"HCT116; HCT-116, 72 h, read-out: HCT-116 viab. IC50, Table 2, basal, 72 h, Cell TiterGlo, non-adherent, 20 coded",> 20 µM
same,IC50,"[3]; HCT-116, read-out: HCT-116 (GSK3β) viab. IC50, Table 2, GSK3β inhibitor LY2090314 20 nM, 72 h, Cell TiterGlo, 20 coded",> 20 µM
CC(=O)Oc1ccccc1C(=O)Nc1ncc([N+](=O)[O-])s1 [nitazoxanide],IC50,[1]; [4],2.06 µM
same,EC50,[2]; [5],> 10 µM
same,EC50,INS-1E cells; [6],> 10 µM
same,EC50,NCI-H716 cells; [7],> 10 µM
same,EC50,HeLa cells; [8],> 10 µM
same,IC50,DLD-1; [9],3.09 µM
same,IC50,SW480; [10],3.03 µM
same,IC50,HCT116; [11],2.81 µM
same,IC50,[3]; [12],2.46 µM
O=C1c2c(O)cccc2Cc2cccc(O)c21 [Anthralin],IC50,[1]; [4],0.604 µM
same,EC50,[2]; [5],> 10 µM
same,EC50,INS-1E cells; [6],> 10 µM
same,EC50,NCI-H716 cells; [7],> 10 µM
same,EC50,HeLa cells; [8],> 10 µM
same,IC50,DLD-1; [9],0.0667 µM
same,IC50,SW480; [10],1.57 µM
same,IC50,HCT116; [11],2.2 µM
same,IC50,[3]; [12],16.3 µM
CCCCCCCCCCCCCCCC[N+](C)(C)Cc1ccccc1 [Cetalkonium chloride],IC50,[1]; [13],2.53 µM
same,EC50,[2]; [14],> 10 µM
same,EC50,INS-1E cells; [15],> 10 µM
same,EC50,NCI-H716 cells; [16],> 10 µM
same,EC50,HeLa cells; IC50 / EC50,> 10 µM
same,IC50,DLD-1; [17],3.92 µM
same,IC50,SW480; [18],5.17 µM
same,IC50,HCT116; [19],3.47 µM
same,IC50,[3]; [20],6.25 µM
C=CC(=O)Nc1cc2c(Nc3ccc(F)c(Cl)c3)ncnc2cc1OCCCN1CCOCC1 [Canertinib],IC50,[1]; [21],> 10 µM
same,EC50,[2]; [22],1 µM
same,EC50,INS-1E cells; [23],> 10 µM
same,EC50,NCI-H716 cells; [24],> 10 µM
same,EC50,HeLa cells,> 10 µM
same,IC50,DLD-1; [25],0.841 µM
same,IC50,SW480; [26],1.21 µM
same,IC50,HCT116; [27],3.71 µM
same,IC50,[3]; [28],3.51 µM
"CC[C@H](C)C(=O)O[C@H]1C[C@@H](C)C=C2C=C[C@H](C)[C@H](CC[C@@H]3C[C@@H](O)CC(=O)O3)[C@H]21 [lovastatin, reference compound]",IC50,[1]; [21],3.27 µM
same,EC50,[2]; [22],> 10 µM
same,EC50,INS-1E cells; [23],> 10 µM
same,EC50,NCI-H716 cells; [24],> 20 µM
same,EC50,HeLa cells,> 10 µM
same,IC50,DLD-1; [25],19.2 µM
same,IC50,SW480; [26],4.73 µM
same,IC50,HCT116; [27],1.75 µM
same,IC50,[3]; [28],7.36 µM
CCCCc1ccc2[nH]c(NC(=O)OC)nc2c1 [parbendazole],IC50,[1]; [4],0.053 µM
same,EC50,"[2]; Mus musculus, C2C12; read-out: Wnt Pathway",0.0336 µM
same,EC50,INS-1E cells; [6],> 10 µM
same,EC50,NCI-H716 cells; [7],> 10 µM
same,EC50,HeLa cells; [8],0.0106 µM
same,IC50,DLD-1; [9],0.64 µM
same,IC50,SW480; [10],1.99 µM
same,IC50,HCT116; [11],0.118 µM
same,IC50,[3]; [12],0.105 µM
Nc1nc(=O)n([C@@H]2O[C@H](CO)[C@@H](O)[C@@H]2F)cc1I [Fiacitabine],IC50,[1]; [13],3.47 µM
same,EC50,[2]; [14],> 10 µM
same,EC50,INS-1E cells; [15],> 10 µM
same,EC50,NCI-H716 cells; [16],> 10 µM
same,EC50,HeLa cells; IC50 / EC50,> 10 µM
same,IC50,DLD-1; [17],> 20 µM
same,IC50,SW480; [18],> 20 µM
same,IC50,HCT116; [19],> 20 µM
same,IC50,[3]; [20],> 20 µM
